Patent US20250263390A1, “NOVEL SUBSTITUTED 6,7-DIHYDRO-5H-BENZO[7]ANNULENE COMPOUNDS AND THEIR DERIVATIVES, PROCESSES FOR THEIR PREPARATION AND THERAPEUTIC USES THEREOF” (SANOFI, priority 2022, published 2025)

target: T1, ERα (Homo sapiens, UniProt P03372); experiment: Estrogen receptor degradation activity: breast cancer cell ERα in cell western assay; assay type: cell-based; conditions: MCF7 cells, 4 hours, relative to fulvestrant 0.1 μM positive control
T1 construct: host or cells: MCF7
T1 sequence (P03372 1-595): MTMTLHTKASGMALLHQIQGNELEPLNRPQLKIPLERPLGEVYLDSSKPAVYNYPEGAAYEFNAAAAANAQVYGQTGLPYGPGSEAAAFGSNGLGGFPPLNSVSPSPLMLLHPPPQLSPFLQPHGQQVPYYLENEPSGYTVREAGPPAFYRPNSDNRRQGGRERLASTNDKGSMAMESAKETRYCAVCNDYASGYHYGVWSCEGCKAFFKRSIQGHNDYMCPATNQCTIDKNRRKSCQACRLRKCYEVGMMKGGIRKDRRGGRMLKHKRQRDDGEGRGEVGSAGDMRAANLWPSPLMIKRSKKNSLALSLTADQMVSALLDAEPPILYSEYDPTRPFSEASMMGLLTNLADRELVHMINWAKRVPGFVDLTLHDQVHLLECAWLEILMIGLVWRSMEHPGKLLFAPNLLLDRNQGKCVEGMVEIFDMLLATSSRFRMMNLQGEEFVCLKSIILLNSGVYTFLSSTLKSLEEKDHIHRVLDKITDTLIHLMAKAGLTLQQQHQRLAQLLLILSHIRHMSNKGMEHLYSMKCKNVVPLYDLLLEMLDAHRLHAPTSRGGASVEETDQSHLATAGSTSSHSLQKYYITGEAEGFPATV
Summary of the method: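 MCF7 cells in phenol red-free medium with 5% charcoal-stripped FBS, 4 h exposure to 9-point 1:5 dilutions (final 0.3–0.0000018 μM). ERα immunostained in fixed cells and normalised to DNA dye; % decrease scaled between DMSO and 0.1 μM fulvestrant, IC50 reported in nM.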

Going from `O=C(O)C(F)(F)F.O=C(O)c1ccc2c(c1)CCCC(CCCO)=C2c1ccc(CC2CN(CCCF)C2)cc1` [Compound 15, 9-(4-((1-(3-fluoropropyl)azetidin-3-yl)methyl)phenyl)-8-(3-hydroxypropyl)-6,7-dihydro-5H-benzo[7]annulene-3-carboxylic acid, 2,2,2-trifluoroacetic acid] to `Cc1cc(C2=C(c3ccc(CC4CN(CCCF)C4)cc3)c3ccc(C(=O)O)cc3CCC2)ccc1C(F)(F)F` [Compound 26, 9-(4-((1-(3-fluoropropyl)azetidin-3-yl)methyl)phenyl)-8-(3-methyl-4-(trifluoromethyl)phenyl)-6,7-dihydro-5H-benzo[7]annulene-3-carboxylic acid], the “% Degradation At 0.3 μM” value falls from 100% to 93%.

Going from `COc1cccc(F)c1C1=C(c2ccc(CC3CN(CCCF)C3)cc2)c2ccc(C(=O)O)cc2CCC1` [Compound 45, 8-(2-fluoro-6-methoxyphenyl)-9-(4-((1-(3-fluoropropyl)azetidin-3-yl)methyl)phenyl)-6,7-dihydro-5H-benzo[7]annulene-3-carboxylic acid] to `CCc1c(F)cccc1C1=C(c2ccc(CC3CN(CCCF)C3)cc2)c2ccc(C(=O)O)cc2CCC1` [Compound 37, 8-(2-ethyl-3-fluorophenyl)-9-(4-((1-(3-fluoropropyl)azetidin-3-yl)methyl)phenyl)-6,7-dihydro-5H-benzo[7]annulene-3-carboxylic acid], the “% Degradation At 0.3 μM” value rises from 92% to 94%.

Compared with `COc1ccc(C(F)(F)F)c(C2=C(c3ccc(CC4CN(CCCF)C4)cc3)c3ccc(C(=O)O)cc3CCC2)c1` [Compound 35, 9-(4-((1-(3-fluoropropyl)azetidin-3-yl)methyl)phenyl)-8-(5-methoxy-2-(trifluoromethyl)phenyl)-6,7-dihydro-5H-benzo[7]annulene-3-carboxylic acid], `COc1ccc(C2=C(c3ccc(CC4CN(CCCF)C4)cc3)c3ccc(C(=O)O)cc3CCC2)cc1C(F)(F)F.Cl` [Compound 17, 9-(4-((1-(3-fluoropropyl)azetidin-3-yl)methyl)phenyl)-8-(4-methoxy-3-(trifluoromethyl)phenyl)-6,7-dihydro-5H-benzo[7]annulene-3-carboxylic acid, hydrochloride] is higher in “% Degradation At 0.3 μM” value: 91% for the first, 92% for the second.

Going from `Cc1cc(C)c(C2=C(c3ccc(CC4CN(CCCF)C4)cc3)c3ccc(C(=O)O)cc3CCC2)c(Cl)c1` [Compound 53, 8-(2-chloro-4,6-dimethylphenyl)-9-(4-((1-(3-fluoropropyl)azetidin-3-yl)methyl)phenyl)-6,7-dihydro-5H-benzo[7]annulene-3-carboxylic acid] to `Cc1c(OC(F)F)cccc1C1=C(c2ccc(CC3CN(CCCF)C3)cc2)c2ccc(C(=O)O)cc2CCC1` [Compound 14, 8-(3-(difluoromethoxy)-2-methylphenyl)-9-(4-((1-(3-fluoropropyl)azetidin-3-yl)methyl)phenyl)-6,7-dihydro-5H-benzo[7]annulene-3-carboxylic acid], the “% Degradation At 0.3 μM” value rises from 88% to 93%.

Going from `CCc1c(C2=C(c3ccc(CC4CN(CCCF)C4)cc3)c3ccc(C(=O)O)cc3CCC2)cccc1C(F)(F)F` [Compound 67, 8-(2-ethyl-3-(trifluoromethyl)phenyl)-9-(4-((1-(3-fluoropropyl)azetidin-3-yl)methyl)phenyl)-6,7-dihydro-5H-benzo[7]annulene-3-carboxylic acid] to `O=C(O)c1ccc2c(c1)CCCC(c1ccc(C(F)(F)F)cc1C(F)(F)F)=C2c1ccc(CC2CN(CCCF)C2)cc1` [Compound 39, 8-(2,4-bis(trifluoromethyl)phenyl)-9-(4-((1-(3-fluoropropyl)azetidin-3-yl)methyl)phenyl)-6,7-dihydro-5H-benzo[7]annulene-3-carboxylic acid], the “% Degradation At 0.3 μM” value rises from 93% to 95%.

With `Cl.O=C(O)c1ccc2c(c1)CCCC(c1ccc(C(F)(F)F)cc1C1CC1)=C2c1ccc(CC2CN(CCCF)C2)cc1` [Compound 32, 8-(2-cyclopropyl-4-(trifluoromethyl)phenyl)-9-(4-((1-(3-fluoropropyl)azetidin-3-yl)methyl)phenyl)-6,7-dihydro-5H-benzo[7]annulene-3-carboxylic acid, hydrochloride] the “% Degradation At 0.3 μM” value was 91%.
